Data reported in paper PMC8502973 (Frontiers in Physiology, 2021).
Entries after “also recorded” stand apart in the source; their conditions may differ.

Experiments:
[1] = Excipient (HP-CD) effects on food intake and body weight; assay type: in vivo; settings: 2% HP-CD/saline, 1 mL/kg, 7 days, lean male rats n = 5
Protocol: As the excipient used to place ASK1476 in solution, HP-CD, was used in excess, a preliminary experiment was run to examine whether it produces any anorectic effects independently. Testing consisted of a 7-day normal saline treated phase followed by a 7-day 2% HP-CD/saline solution (dose 1 mL/kg) treated phase in lean male rats (n = 5; at start of HP-CD treatment: mean 410 g, SD 26 g). […] Food intake was continuously recorded using AccuScan DietMax (currently OmniTech Electronics, Inc., Diet System) cages and data were binned into 15-min intervals for analysis. The start of the 24-h food intake period aligned to the lights turning off in the animal room. Body weight was recorded, and treatment injections were administered just prior to the start of the dark cycle.

V2R = V2R agonist; no reference given; cited from earlier work
Excerpt: Whereas the overall profile of ASK1476 met the primary aim of our studies including the enhanced stability of the OXTR activator in vivo, the molecule did display a significant activation of the V2R. As mentioned above, the receptor plays the key role in both urine and water homeostasis.

hV1aR = tested on: hV1aR; parameters: method as in 3 sources, one per row (each row's own in cited_ref): ref Wiśniewski et al. (2014) ||| ref Modi et al. (2016) ||| ref Modi et al., 2016; settings: OXT; ref Wiśniewski et al. (2014); cited from earlier work
[2] = Dose escalation: body weight change; assay type: in vivo, male DIO Sprague Dawley rats; settings: sc once daily
Protocol: (§1) Sprague Dawley rats (male, ∼4 weeks of age, 51–75 g body weight) were switched from standard chow to a high fat diet (Research Diets, Diet # D12492, 60, 20, 20%kcal from fat, protein, and carbohydrate, respectively, 5.21 kcal/g; stored at −20°C). The rats were maintained on this diet for approximately 15 weeks prior to the start of experiments to develop a diet-induced overweight (DIO) model. Animals were individually housed on a 12 h/12 h light/dark cycle (lights on at 04:00 h) in a temperature (23°C) and humidity (mean 50%, SD 10%) controlled room. All body weight measurements were made just prior to the start of the dark cycle.
(§2) Sequential rounds of a 3-day baseline phase (vehicle treated), a 3-day treatment phase, and a washout phase (2–5 days as necessary) were tested. […] High fat diet was accessible to the rats from all but the last 6 h of the light cycle and water was provided ad libitum. This daily period of food restriction was used to prevent incidental feeding in the event animals were disturbed from their sleep by noise from surrounding rooms. […] Food and kaolin intake were continuously recorded using AccuScan DietMax (currently OmniTech Electronics, Inc., Diet System) cages. […] Body weight was recorded, and treatment injections were administered just prior to the start of the dark cycle.

[3] = tested on: OXTR compared with the V1aR; parameters: method as in Akerlund et al., 1999; settings: ref Akerlund et al., 1999; cited from earlier work
Excerpt: (§3) Finally, the potential for toxic side effects upon chronic administration at high concentration and/or f ...

[4] = Dose escalation: water intake; assay type: in vivo, male DIO Sprague Dawley rats; settings: sc once daily; ASK1476 F(1.80, 12.61) = 3.15, p = 0.082; OXT F(1.68, 11.72) = 4.05, p = 0.086
Protocol: as §1, §2

[5] = Dose escalation: kaolin intake (pica, nausea/visceral malaise); assay type: in vivo, male DIO Sprague Dawley rats
Protocol: as §1
(§4) Sequential rounds of a 3-day baseline phase (vehicle treated), a 3-day treatment phase, and a washout phase (2–5 days as necessary) were tested. […] High fat diet was accessible to the rats from all but the last 6 h of the light cycle and water was provided ad libitum. This daily period of food restriction was used to prevent incidental feeding in the event animals were disturbed from their sleep by noise from surrounding rooms. To assess a potential pica response (nausea/visceral malaise) in animals, powdered kaolin (Sigma-Aldrich, K1512) was made available on drug treatment days with a restriction period similar to the high fat diet. Prior to the first experiment, rats were provided access to kaolin for 2 days so that they could familiarize themselves with it prior to start of testing. Food and kaolin intake were continuously recorded using AccuScan DietMax (currently OmniTech Electronics, Inc., Diet System) cages. The high fat diet was compressed in the food tray to form a solid block of food. This allows for more accurate meal size measurements by preventing the animals from removing entire pellets at time. All food and kaolin intake data were binned into 15-min intervals for analysis and the start of the 24-h food intake period aligned to the lights turning off in the animal room. Body weight was recorded, and treatment injections were administered just prior to the start of the dark cycle.

[6] = Dose escalation: food intake; assay type: in vivo, male DIO Sprague Dawley rats
Protocol: as §1, §4

[7] = parameters: method as in Freeman et al., 2016; settings: peripheral administration, macaques; ref Freeman et al., 2016; cited from earlier work
[8] = Long-term: gross motor activity and body temperature (Mini-Mitter transponders); assay type: in vivo, male DIO Sprague Dawley rats; settings: 28-day study, n = 5 per group, first 12 days analysed
Excerpt: (§5) Male DIO Sprague Dawley rats (n = 24) were generated as outlined above and were 644.5 g (50 g) at the start of drug treatment. The animals were divided into three treatment groups (n = 8 each) balanced for body weight, body weight gain during baseline, food intake, and Lee Index [body weight^(1/3)/snout to anus length (mm)] ([Lee, 1929]; [Simson and Gold, 1982]) as an indicator of adiposity (Figure 2). In a subset of the animals (n = 5 per group, balanced for prior mentioned criteria), Mini-Mitter transponders (PDT-4000 E-Mitter, Respironics Inc.) were implanted posterior to the left scapula at least 9 days prior to start of baseline measures to ensure sufficient recovery time. Body temperature and gross motor activity were continuously recorded via these transponders. […] High fat diet and water were provided ad libitum and intake was recorded with daily hopper and water bottle weighs at time of body weight assessment just prior to drug administration. Blood samples were taken at start of intervention by tail vein bleeding and via cardiac puncture under an isoflurane induced surgical plane of anesthesia at euthanasia. Animals were euthanized on treatment day 29, 4 h after receiving a dose of their assigned treatment, via decapitation under isoflurane anesthesia immediately following blood draw. Body composition was assessed on carcasses.
For comparisons of mean longitudinal changes in body temperature and activity, only the first 12 days of treatment, divided into three 4-day phases, were included in the analysis. These 4-day phases allowed for analyses to consider the ASK1476 dose titration.

hOXTR = tested on: hOXTR; parameters: method as in 2 sources, one per row (each row's own in cited_ref): ref Wiśniewski et al. (2014) ||| ref Modi et al. (2016); settings: OXT; ref Wiśniewski et al. (2014); cited from earlier work
[9] = Long-term (28-day) drug intervention: body weight; assay type: in vivo, male DIO Sprague Dawley rats
Protocol: as §1, §5
From treatment day 8 on the doses were maintained to assess long-term efficacy at a therapeutically meaningful dose.

[10] = 2015, cited from earlier work
Excerpt: OXT is a downstream target of the adipose tissue hormone leptin.

[11] = Long-term: body composition of carcasses by quantitative magnetic resonance; assay type: in vivo, male DIO Sprague Dawley rats
Excerpt: as §5
Body composition (total and relative fat mass, lean mass, and water content) was assessed on carcasses from the long-term drug intervention study using Quantitative Magnetic Resonance (EchoMRI 4-in-1, Echo Medical Systems, Houston, TX) at the Rodent Metabolic and Behavioral Phenotyping Core at the VA Puget Sound Health Care System (VAPSHCS).

Toxicity / mortality = assay type: in vivo; settings: rat, in vivo, sc
[12] = cited from earlier work
Excerpt: as §3

## Hydroxypropyl-β-cyclodextrin [HP-CD]
[1]; 95% CU −0.19 to 0.71, p = 0.187
  7-day food intake, difference vs saline: 0.26 g
[1]; 95% CU −0.99 to 0.95, p = 0.950
  body weight gain, difference vs saline: -0.02 g

## desmopressin
V2R
  side effects in the clinical setting: hyponatremia and renal water retention

## oxytocin [OXT]
hV1aR
  EC50: 10 nM
[2]; ASK1476 6-300 nmol/kg, OXT 20-1200 nmol/kg, 3 days
  body weight gain across dosing spectrum: Significant reductions in body weight gain; also recorded: effective in reducing body weight gain across the dose spectrum
[2]; ASK1476 F(2.08, 15.54) = 9.50, p = 0.002, OXT F(2.40, 16.79) = 16.98, p < 0.0001
  interaction of treatment and dose on body weight change: significant interaction
[3]
  affinity for the OXTR compared with the V1aR: fivefold greater affinity
[4]
  water intake: not significantly affected
[5]; ASK1476 dosing spectrum
  visceral malaise signal (notably high kaolin intake in a few animals): not observed in any
[5]; low doses, sc once daily
  kaolin intake at low doses: below 4 g/d
[5]; sc once daily, ASK1476 6-300 nmol/kg F(1.80, 12.59) = 2.26, p = 0.148, OXT 20-1200 nmol/kg F(1.51, 10.52) = 1.73, p = 0.223
  kaolin intake, effect of treatment: no significant effect of treatment
[6]; OXT 20 nmol/kg sc once daily vs 3-day saline baseline, n = 8, 95% CI −19.40 to −2.94, p = 0.0106
  reduction in 3-day averaged food intake: -11.17 kcal/day
[6]; sc once daily, 3 days, n = 8
  lowest dose with significant reduction in 3-day averaged food intake: 20 nmol/kg
[6]; sc once daily, ASK1476 F(2.84, 19.86) = 6.52, p = 0.003, OXT F(1.89, 13.25) = 9.49, p = 0.003
  interaction of treatment and dose on 3-day averaged food intake: significant interaction
[7]
  entry into the CSF from the periphery: only small amounts
[8]
  locomotor activity or body temperature: did not find any evidence
[8]; listed as oxytocin
  locomotor activity or body temperature: no effects were detected on locomotor activity or body temperature
hOXTR
  EC50: 2.3 nM
[9]; 28-d treatment
  compensatory weight gain / weight regain following nadir: significantly lower rates of weight regain following body weight nadir
[9]; 28-day treatment, sc once daily
  average day of body weight nadir: 14 days
[9]; OXT: 95% CI −0.23 to 0.01, p = 0.069
  daily percent change of body weight from nadir, mean difference vs. vehicle: −0.11%
[9]; after 28-day Tx, ASK1476 to 120 or OXT 600 nmol/kg/d sc, n = 8, Mean ± SD, oxytocin * p < 0.05 vs vehicle, ANOVA p 0.041
  Body weight, post-treatment: 615.143.2* g
[9]; long-term study, titration phases
  reduction in body weight, OXT 600 nmol/kg/d compared with ASK1476 30 and 60 nmol/kg: significantly greater reductions in body weight
[9]; mean, SD 0.04% ASK1476, 0.16% OXT, vehicle 0.34% (SD 0.05%)
  average daily individual percent change of body weight from nadir to end of treatment: 0.23%
[9]; treatment days 9-28
  weight stability during final 20 days: remained weight stable
[10]; peripheral administration, diet-induced and genetically obese rodent models, ref Maejima et al., 2011, Morton et al., 2012, Blevins et al.
  food intake, energy expenditure and weight gain: reduces food intake, enhances energy expenditure, and prevents or reduces weight gain
[10]; ref Blevins et al.
  energy expenditure / weight loss in diet-induced obese non-human primates: elicits weight loss, in part, by increasing energy expenditure
[11]; OXT 600 nmol/kg/d 28 days, 95% CI −97.2 to 7.2, p = 0.103
  fat mass, difference vs vehicle: -45.0 g
[11]; OXT 600 nmol/kg/d 28 days, 95% CU −109.8 to −5.4, p = 0.028
  lean mass, difference vs vehicle: -57.6 g
[11]; after 28-day Tx, n = 8, Mean ± SD, oxytocin * p < 0.05 vs vehicle, ANOVA p 0.015
  Lean mass, post-treatment: 416.531.9* g
Toxicity / mortality
  adverse effects or tolerability issues: No adverse effects or tolerability issues were observed
[12]
  half-life in vivo: ~5 min
